Source: article PMC11462456 (Chemical Science, 2024)

Key:
[1] = system: BRD2, BRD3, and BRD4 proteins; experiment: Western blot BET protein degradation in HEK293 cells (screen, washout kinetics, proteasome rescue); format: cell-based, human; conditions: 4 h, 0.1 μM and 1 μM
Description: 4. Biological experiments
Primary antibodies used for western blotting included anti-human BRD2(1:2000, rabbit monoclonal, Abcam, ab139690), anti-human BRD3 (1:1000, rabbit monoclonal, Abcam, ab264420), anti-human BRD4 (E2A7X) (1:1000, rabbit monoclonal, Cell Signaling Technology, #13440), anti-human VHL (1:1000, rabbit polyclonal, Cell Signaling Technology, #68547), anti-human CRBN (D8H3S) (1:1000, rabbit polyclonal, Cell Signaling Technology, #71810), anti-human alpha Tubulin, clone B-5-1-2 (1:5000, mouse monoclonal, Merck Life Science, # 32-2500).Secondary antibodies used for western blot included: anti-mouse horseradish peroxidase-linked antibody (1:3000, sheep, GE Healthcare Life Sciences, #NA931V), and anti-rabbit horseradish peroxidase-linked antibody (1:8000, donkey, GE Healthcare Life Sciences, #NA934V). Reagent for degradation assay and compounds […]
dr. Serge Van Calenbergh, Ghent University).
4.2 Cell lines and culture […]
General method of Western blot: Lysates were sonicated and centrifuged at 4 °C at 20000 g for 15 min, and the supernatants were transferred to new tubes. Protein concentration of cell lysates was measured using the DC Protein Assay kit (BIO-RAD) following manufacturer's instructions. […]
Figure S1 Dual-ligand PROTACs induce target protein degradation in A549 cells. […] Subsequently, cells were lysed and BRD2, BRD3 and BRD4 protein levels were measured by Western blot. […]

[2] = Mouse serum stability by HPLC-MS/MS; format: in vitro ADME; conditions: after 2 hours of incubation, 37°C
Experimental: Figure S7. Dual-ligand PROTACs inhibit cancer cell growth in 2D and 3D in vitro cell cultures.
(A) 2D-cultured SKOV-3 were treated with an escalating dose of PROTACs for 48h. Cell viability was assessed by CellTiter-Glo 2D assay. EC50 values were calculated from fitted curves. (B) HCT116 spheroids were treated with an escalating dose of PROTACs for 72h (equivalent volume of DMSO as control group). Representative transmitted microscopy images at the dose of 10nM. (C) Cell viability was assessed by Cell Titer-Glo 3D assay. Both experiments were performed as three independent replicates. (D) 2D-cultured A549 cells were treated with an escalating dose of PROTACs equipped with similar linker length as dual-ligand PROTACs. Cell viability was assessed by CellTiter-Glo 2D assay.
EC50 values were calculated from fitted curves.
Eurofins Panlabs, 6 Research Park Dr. St. Charles, MO 63304, U.S.A. Compounds were incubated in the mouse serum at 37°C for certain time, and at 0, 0.5, 1, 1.5, 2 hours post incubation, the mouse serum was analyzed by HPLC-MS/MS according to the reference: Di, L. et al. (2005), Int. J. Pharm., 297 (1-2): 110-119. […] Samples were analyzed by HPLC-MS/MS and peak areas were recorded for each analyte. The area of precursor compound remaining after each of the time points relative to the amount remaining at time zero, expressed as percent, is calculated. […]

[3] = system: BRD2, BRD3 and BRD4; experiment: Mass spectrometry proteomics in A549 cells; format: cell-based, human; conditions: 10 nM, 4 hours, 7592 proteins quantified
Experimental: A549 cells in DMEM medium were seeded at 1×10^6 cells on a 6-well plate 24 h before […]
volume of DMSO. After 4 h, the cells were digested by trypsin, centrifuged at 250g for 5min and washed three times with PBS. Cells were resuspended in lysis buffer (50 mM triethylammonium bicarbonate (TEAB), 5% SDS (pH 7.5)), then sonicated, and clarified with centrifugation of 13,000g for 8 minutes. Each sample was reduced with 20 mM DTT, then warmed the solution first at 95 °C for 10 minutes and then at 60 °C for 1 hour. The reduced proteins were alkylated with 40 mM iodoacetamide (IAA) in the dark for 30 minutes. Then samples were acidified with 1.2% aqueous phosphoric acid and mixed with 6× volumes of 90% methanol, 100 mM TEAB, pH 7.1 (S-Trap binding buffer). The samples were loaded onto the (1 picture or pasted object on this page, not shown here)

SMILES	degradation efficiency versus single- and trivalent PROTACs [1]	compound remained intact in mouse serum [2] [%]	BET protein abundance change in proteome [3]
Cc1sc2c(c1C)C(c1ccc(Cl)cc1)=N[C@@H](CC(=O)NCCOCCOCCNC(=O)C[C@H](NC(=O)COCCOCCOCCOCCn1cc(CCC(=O)N[C@@H](CC(=O)NCCOCCOCCNc3cccc4c3C(=O)N(C3CCC(=O)NC3=O)C4=O)C(=O)NCCOCCOCCNc3cccc4c3C(=O)N(C3CCC(=O)NC3=O)C4=O)nn1)C(=O)NCCOCCOCCNC(=O)C[C@@H]1N=C(c3ccc(Cl)cc3)c3c(sc(C)c3C)-n3c(C)nnc31)c1nnc(C)n1-2 (stereo partly drawn) [2J2P]	superior degradation efficiency		
Cc1ncsc1-c1ccc(C(C)NC(=O)C2CC(O)CN2C(=O)C(NC(=O)COCCOCCNC(=O)CC(NC(=O)CCc2cn(CCOCCOCCOCCOCC(=O)NC(CC(=O)NCCOCCOCCNC(=O)CC3N=C(c4ccc(Cl)cc4)c4c(sc(C)c4C)-n4c(C)nnc43)C(=O)NCCOCCOCCNC(=O)CC3N=C(c4ccc(Cl)cc4)c4c(sc(C)c4C)-n4c(C)nnc43)nn2)C(=O)NCCOCCOCC(=O)NC(C(=O)N2CC(O)CC2C(=O)NC(C)c2ccc(-c3scnc3C)cc2)C(C)(C)C)C(C)(C)C)cc1 (stereo not drawn) [2J2V]	superior degradation efficiency	88	top proteins being degraded the most
Cc1ncsc1-c1ccc(CNC(=O)C2CC(O)CN2C(=O)C(NC(=O)COCCOCCOCCNC(=O)CC2N=C(c3ccc(Cl)cc3)c3c(sc(C)c3C)-n3c(C)nnc32)C(C)(C)C)cc1 (stereo not drawn) [MZ1, reference compound]		95	much lower change in BET protein abundance
